How the values were obtained:
[1] = system: Jurkat (JM) cells; test: Staining of proliferating Jurkat cells with labelling agent and propidium iodide, fluorescence microscopy; assay type: cell-based; conditions: 10 μL agent (100 μg pr. mL DMSO) added to 90 μL cells, only exception PI positive cells
Procedure: (§1) Materials and Methods. Jurkat (JM) cells were grown at 37° C. in a humidified air atmosphere with 5% CO2 in RPMI (Invitrogen, #61870) supplemented with 10% heat-inactivated fetal bovine serum (Invitrogen, #10108-165). 90 μL proliferating Jurkat cells (cell density 1.2×10^6, 99% viable determined using the NC-100 NucleoCounter system following the manufacturer's (ChemoMetec A/S) protocol) were added 10 μL NAM (N-(9-acridinyl)maleimide, Sigma, #01665, CAS no. 49759-20-8) dissolved in DMSO (100 μg NAM pr. mL DMSO) and mixed by pipetting. Cells were loaded into a NucleoCassette, containing the DNA stain propidium iodide (PI). The cells were investigated using an Olympus IX50 fluorescence microscope, and images were captured using a Lumenera CCD camera and in-house developed software. PI and NAM fluorescence were detected using, respectively, U-MWG2 (green long pass: 510-550 nm) and U-MNUA2 (UV band pass, 330-385 nm) filter cubes (Olympus).
as §1, with “1.0×10^6,” for “1.2×10^6,”, “(ChemoMetec)” for “(ChemoMetec A/S)”, “CPM (7-diethylamino-3-[4′-maleimidylphenyl]-4-methylcoumarin, Chemodex Ltd.,” for “NAM (N-(9-acridinyl)maleimide, Sigma, #01665,”, “76877-33-3)” for “49759-20-8)”, “CPM” for “NAM”
as §1, with “1.1×10^6, 98%” for “1.2×10^6, 99%”, “(ChemoMetec)” for “(ChemoMetec A/S)”, “PM (N-(1-Pyrenyl)maleimide, Sigma P7908” for “NAM (N-(9-acridinyl)maleimide, Sigma, #01665,”, “42189-56-0)” for “49759-20-8)”, “PM” for “NAM”, “Cells were loaded into a NucleoCassette, containing the DNA stain propidium iodide (PI).” left out
Materials and Methods. […] 90 μL proliferating Jurkat cells (cell density 1.1×10^6, 98% viable determined using the NC-100 NucleoCounter system following the manufacturer's (ChemoMetec) protocol) were added 10 μL CPI (7-diethylamino-3-((4′-(iodoacetyl)amino)phenyl)-4-methylcoumarin, Sigma 78264 CAS no. 76877-34-4) dissolved in DMSO (100 μg CPI pr. mL DMSO) and mixed by pipetting. […] The cells were investigated using an Olympus IX50 fluorescence microscope, and images were captured using a Lumenera CCD camera and in-house developed software. PI and CPI fluorescence were detected using, respectively, U-MWG2 (green long pass: 510-550 nm) and U-MNUA2 (UV band pass, 330-385 nm) filter cubes (Olympus). […]

[2] = system: HEK293 cells; test: NAM/PI staining of outgrown HEK293 cells, fluorescence microscopy; assay type: cell-based, Human; conditions: HEK293 cells treated with 0.25% Triton X-100; 10 μg/mL NAM
Procedure: Materials and Methods. HEK293 cells were grown at 37° C. in a humidified air atmosphere with 5% CO2 in DMEM (Invitrogen, #31966) supplemented with 10% heat-inactivated fetal bovine serum (Invitrogen, #10108-165). Cells were harvested with 0.5 mL of trypsin (Invitrogen, #25300) and neutralized with 5 mL medium (DMEM+10% FCS) two days after they had reached full confluency. These outgrown HEK293 cells (cell density 1.6×10^6, 78% viable determined using the NC-100 NucleoCounter system following the manufacturer's (ChemoMetec) protocol) were stained with 10 μg/mL NAM (Sigma, #01665). Another cell sample were treated with 0.25% Triton X-100 (Sigma, #T9284) and hereafter added 10 μg/mL NAM. After staining, each cell sample was loaded into a NucleoCassette, containing the DNA stain propidium iodide (PI). The cells were investigated using an Olympus IX50 fluorescence microscope, and images were captured using a Lumenera CCD camera and in-house developed software. PI and NAM fluorescence were detected using, respectively, U-MWG2 (green long pass: 510-550 nm) and U-MNUA2 (UV band pass, 330-385 nm) filter cubes (Olympus).

[3] = system: bone marrow derived dendritic cells (BM-DCs); test: Staining of bone marrow derived dendritic cells with labelling agent and PI; assay type: cell-based, murine; conditions: dendritic cells 97% viable; 10 μL mCB (100 μg pr. mL DMSO) to 90 μL cells; incubated at room temperature for 1 hour
Text: Materials and Methods. Dendritic cells were developed from murine bone marrow derived cells as described by “Lutz, M. B., N. Kukutsch, A. L. Ogilvie, S. Rossner, F. Koch, N. Romani, and G. Schuler. 1999. An advanced culture method for generating large quantities of highly pure dendritic cells from mouse bone marrow. J Immunol Methods 223:77-92”. Bone marrow cells were harvested aseptically in the laminar flow hood as described in example 11. Washed and resuspended bone marrow cells were resuspended in RPMI 1640 (Invitrogen, #61870) supplemented with 10% heat-inactivated fetal bovine serum (Invitrogen, #10108-165), 100 U/mL penicillin and 100 μg/mL streptomycin (Invitrogen, #15140-122). […] 90 μL dendritic cells (cell density 1.2×10^6, 97% viable determined using the NC-100 NucleoCounter system following the manufacturer's (ChemoMetec A/S) protocol) were added 10 μL NAM (N-(9-acridinyl)maleimide, Sigma, #01665, CAS no. 49759-20-8) dissolved in DMSO (100 μg NAM pr. mL DMSO) and mixed by pipetting. […] The cells were investigated using an Olympus IX50 fluorescence microscope, and images were captured using a Lumenera CCD camera and in-house developed software. PI and NAM fluorescence were detected using, respectively, U-MWG2 (green long pass: 510-550 nm) and U-MNUA2 (UV band pass, 330-385 nm) filter cubes (Olympus). […]

SMILES | staining of cells (UV filter) versus PI positive cells [1] | other results
CCN(CC)c1ccc2c(C)c(-c3ccc(N4C(=O)C=CC4=O)cc3)c(=O)oc2c1 [CPM, 7-diethylamino-3-[4′-maleimidylphenyl]-4-methylcoumarin] | nearly all cells were stained by CPM | –
CCN(CC)c1ccc2c(C)c(-c3ccc(NC(=O)CI)cc3)c(=O)oc2c1 [CPI, 7-diethylamino-3-((4′-(iodoacetyl)amino)phenyl)-4-methylcoumarin] | nearly all cells were stained by CPI | –
CC[N+](C)(CC)CCC[n+]1c(-c2ccccc2)c2cc(N)ccc2c2ccc(N)cc21.[I-].[I-] [PI, propidium iodide] | – | staining of Triton X-100 treated cells [2]: PI positive
O=C1C=CC(=O)N1c1ccc2ccc3cccc4ccc1c2c34 [PM, N-(1-Pyrenyl)maleimide] | nearly all cells were stained by PM | –
Cc1c(C)n2c(CCl)c(C)c(=O)n2c1=O [mCB, monochlorobimane] | – | staining of cells (UV filter) versus PI positive cells [3]: nearly all the dendritic cells were stained by mCB

Source: patent US9128097B2, “Method and kit for assessing viable cells” (ChemoMetec A/S, priority 2008, dated 2015)
